From patent publication US9328130B2, “Method of treating organism by biologically active compounds specifically delivered into mitochondria, pharmaceutical composition required for the use of the method and a compound applicable for this purpose” (MITOTECH S.A., priority 2005, dated 2016)

How the values were obtained:
Yarrowia lipolytica = assay: Protection of yeast cells from death caused by hydrogen peroxide; format: cell-based; conditions: FIG. 14; α-tocopherol 25 μM
OXYS rats = assay: Cataract and macular dystrophy in senescence-accelerated OXYS rats; format: in vivo, rat; conditions: for 2nd stage of cataract / 2nd stage of macular degeneration / changes in the macular area of the retina: OXYS rats age 3 months after oral course; for eyes with lens changes: OXYS rats age 3 months after oral course from 1.5 to 3 months
Method: The animals were housed in cages (45*35*35 cm) and kept under standard laboratory conditions (at 22±1° C., 60% relative humidity, and natural light), provided with a standard rodent diet (PK-120-1, Ltd. ‘Laboratorsnab’, Russia), and given water ad libitum. At the age of 1.5 months after preliminary pupil dilation with 1% tropicamide ophthalmic the rats were conducted through ophthalmoscopic examination using direct ophthalmoscop “Betta”, Germany. […] We use Vitamin E for a comparison with test antioxidants. Animals received the compounds on a small piece of dried bread before a regular meal, and the control group of animals received the same piece of bread without any compound. After completing the course of antioxidants the animals were retested with ophthalmoscope. To avoid human factor in the evaluation of compound effects the researcher who conducted the ophthalmoscopic examination was not told which of the animals received antioxidants. The lens state was evaluated according to the classification system accepted in clinical practice with grades ranging from 0 to 3: score 0—the lens is clear; score 1—spotted weak cloudiness; score 2—multiple spots of cloudiness and score 3—intense cloudiness of the lens core and nucleus.

[1] = Accumulation of MitoQ in tissues when fed to animals (prior art); format: in vivo; conditions: feeding to animals
Method: It should also be noted that despite some promising observations concerning the MitoQ action, there are several results and calculations that cast doubt on the possibility of practical application of this compound. For example, it was shown in experiments with cell culture that MitoQ provides its antioxidant and anti-apoptotic action at concentration about 1 μM in the medium. It means that MitoQ concentrations inside the mitochondria should be 1 mM provided that membrane potential is about 180 mV. On the other hand, it was shown by Smith R A, Porteous C M, Gane A M, Murphy M P, Proc Natl Acad Sci USA, 2003, 100(9):5407-12 when feeding MitoQ to animals, the accumulation of MitoQ in the most oxidative stress sensitive tissues (heart and brain) amounts up to 100 pmoles/gram, which corresponds to the MitoQ concentration inside heart mitochondria equal to 100 nM. This is more than 1000 times lower than the concentration shown to be efficient in the cell culture experiments. Formally, the concentration can be raised by the increase of amounts of MitoQ fed to animals, but this is, in fact, not possible due to the toxicity of the compound.

Hela cells [2] = system: Hela cells
cell culture = conditions: cited from earlier work
[3] = feeding to animals; cited from earlier work
cells in culture = conditions: cited from earlier work
Hela cells [4] = assay: Transmission of apoptotic signal between inducer and recipient slides; format: cell-based, human; conditions: 2500 E/ml added to medium for joint incubation
Method: HeLa cells were used in these experiments. Cells grown on a glass slide were treated with different apoptosis-inducing agents (tumor necrosis factor (TNF), staurosporine, H2O2) for 3 h. Then the glass slide with cells (inducer) was washed to remove these reagents and placed into Petri plate to come into contact with glass slide (recipient) with cells grown in the absence of any apoptosis-inducing agent. After 16-18 h of subsequent growth and staining the cells with Hoechst 33342 as described above, apoptosis at both glass slides was analyzed.
Thus the main mediator of apoptosis signal was H2O2.

For `C[C@@H]1C[C@@H]([C@H](O)CC2CC(=O)NC(=O)C2)C(=O)[C@@H](C)C1` [cycloheximide D, reference compound], the “effect on survival compared among protectants” value (Yarrowia lipolytica) was “very similar”.

With `Cc1c(C)c2c(c(C)c1O)CC[C@@](C)(CCC[C@H](C)CCC[C@H](C)CCCC(C)C)O2` [tocopherol, α-tocopherol, reference compound] the “effect on survival compared among protectants” value (Yarrowia lipolytica) was “very similar”.

In the case of `[Br-].[K+]` [KBr], the “2nd stage of cataract” value (OXYS rats) is reported as 57%, the “2nd stage of macular degeneration” value (OXYS rats) is reported as 13% and the “changes in the macular area of the retina” value (OXYS rats) is reported as 87%. For the same molecule, the “eyes with lens changes” value (OXYS rats) was 93%.

With `COC1=C(OC)C(=O)C(CCCCCCCCCC[P+](c2ccccc2)(c2ccccc2)c2ccccc2)=C(C)C1=O` [MitoQ] the “corresponding concentration inside heart mitochondria” value [1] was 100 nM, the “LD50 in the presence of hydrogen peroxide” value (Hela cells [2]; 100 μM hydrogen peroxide) was 4 µM and the “LD50 (concentrations at which 50% cells die)” value (Hela cells [2]; 2 h of incubation, no hydrogen peroxide) was 7 µM. For the same molecule, the “concentration in the medium giving antioxidant and anti-apoptotic action” value (cell culture) was “about 1 μM” and the “accumulation in heart and brain” value [3] was “up to 100 pmoles/gram”.

In the case of `Cc1c(C)c2c(c(C)c1O)CCC(C)(CC[P+](c1ccccc1)(c1ccccc1)c1ccccc1)O2` (stereo not drawn) [MitoVitE], the “concentration with no toxic effect on cells in culture” value (cells in culture) is listed as 10 µM and the “prevention of apoptosis in cultured cells” value (cells in culture; effect retained in the presence of uncoupler FCCP) is listed as “able to prevent apoptosis in cultured cells”.

With `CC(=O)Oc1c(C)c(C)c2c(c1C)CCC(C)(CCC[C@H](C)CCC[C@H](C)CCCC(C)C)O2` (stereo partly drawn) [vitamin E, alfa-tocopherol acetate] the “2nd stage of cataract” value (OXYS rats) was 12%, the “2nd stage of macular degeneration” value (OXYS rats) was 8% and the “changes in the macular area of the retina” value (OXYS rats) was 54%. For the same molecule, the “eyes with lens changes” value (OXYS rats) was 58%.

B1: catalase: catalase (2500 E/ml) added into the medium for joint incubation (protein, UniProt P00432 2-527, looked up)
Catalase: ADNRDPASDQMKHWKEQRAAQKPDVLTTGGGNPVGDKLNSLTVGPRGPLLVQDVVFTDEMAHFDRERIPERVVHAKGAGAFGYFEVTHDITRYSKAKVFEHIGKRTPIAVRFSTVAGESGSADTVRDPRGFAVKFYTEDGNWDLVGNNTPIFFIRDALLFPSFIHSQKRNPQTHLKDPDMVWDFWSLRPESLHQVSFLFSDRGIPDGHRHMNGYGSHTFKLVNANGEAVYCKFHYKTDQGIKNLSVEDAARLAHEDPDYGLRDLFNAIATGNYPSWTLYIQVMTFSEAEIFPFNPFDLTKVWPHGDYPLIPVGKLVLNRNPVNYFAEVEQLAFDPSNMPPGIEPSPDKMLQGRLFAYPDTHRHRLGPNYLQIPVNCPYRARVANYQRDGPMCMMDNQGGAPNYYPNSFSAPEHQPSALEHRTHFSGDVQRFNSANDDNVTQVRTFYLKVLNEEQRKRLCENIAGHLKDAQLFIQKKAVKNFSDVHPEYGSRIQALLDKYNEEKPKNAVHTYVQHGSHLSAREKANL
For B1, the “apoptosis of recipient cells” value (Hela cells [4]) was “prevented apoptosis of recipient cells”.
